In paper PMC9413440, “An Iterative Approach Guides Discovery of the FabI Inhibitor Fabimycin, a Late-Stage Antibiotic Candidate with In Vivo Efficacy against Drug-Resistant Gram-Negative Infections” (ACS Central Science, 2022):
In brackets after ≈: the same amount, converted by molar mass. Where two headings read alike, the source gives them in different places.

What was measured:
[1] = system: Vancomycin-resistant Enterococcus (VRE); assay: MIC, vancomycin-resistant Enterococcus strains; type: cell-based
Method: II. Materials and Methods for Biological Experiments
S. aureus ATCC 29213 and E. coli MG1655 were obtained from the American Type Culture Collection (ATCC). E. coli BW25113 and E. coli JW5503 were obtained from the Keio Collection. AR-bank strains were obtained from the Centers for Disease Control and Prevention and FDA Antibiotic Resistance Isolate Bank.
Antimicrobial susceptibility tests
Susceptibility testing was performed in biological triplicate, unless noted otherwise, using the micro-dilution broth method as outlined by the Clinical and Laboratory Standards Institute. Bacteria were cultured with cation-adjusted Mueller Hinton broth (Sigma Aldrich, catalogue number: 90922). […]
NH3: m/z 391.2 → 171.0. Fabimycin: m/z 405.3 → 145.3. Power analysis was not used to determine the number of replicates. Error bars represent the standard error of the mean of three biological replicates. All compounds evaluated in biological assays were ≥95% pure.

[2] = type: in vitro ADME
Method: Forward 5’-GGG-GCC-AGC-GTT-TCT-TTT-TC-3‘ Parker, 20203
Reverse 5’-AAA-CAT-GGA-GAC-GGT-GCT-GG
Forward 5’-GTG-AGA-TCG-GCA-TGA-CAC-AA-3’ Lin, 20179
Reverse 5’-CTG-AAG-TCC-GCT-ACC-GTT-AT-3’
Compound stability in mammalian plasma
Candidate drugs were incubated with plasma and parent drug levels were monitored at various time points (generally t=0, 10, 20, 30, and 60 minutes) to determine the drug’s half-life in the presence of the chosen system. Each drug is tested in duplicate. Compounds were diluted from 10 mM DMSO stocks to 1 µM in a 100 mM pH 7.4 phosphate buffer and incubated at 37 °C with 0.5 mg/mL of human, rat, or mouse plasma (BioreclamationIVT, Baltimore, MD). Time points were collected at 0 min (after addition of drug), 15 min, 30 min, 60 min, and 120 min following quenching with an equal volume of acetonitrile. The supernatant was collected after centrifugation, and the sample analyzed by LC-MS where the percentage of compound remaining is plotted vs time to determine the drug’s half-life.
Compound plasma protein binding
Candidate drugs were incubated with plasma and parent drug levels are monitored after 4 hours to determine the drug’s free concentration in the presence of the plasma proteins. The standard assay involves equilibrium dialysis, in which compound is allowed to equilibrate between a protein-containing compartment from a protein-free compartment. Each

[3] = system: E. coli MG1655; assay: Time-kill kinetics; type: cell-based, Escherichia coli; conditions: E. coli MG1655, over 8 h
Method: An overnight culture of E. coli MG1655 was diluted in 5 mL of MH broth to ~5.0 * 10^5 CFU/mL and incubated at 37 °C […]
while shaking for 1 hour. […]
the course of 8 hours. At each time point 100 µL of culture was collected and serially diluted in sterile PBS before plating on drug-free agar plates. Colonies were counted after incubation at 37 °C overnight and CFU/mL calculated. […]
All cells were cultured […]
at 37 °C under a 5% CO2 environment. Cell lines were authenticated by a commercial vendor and inspected visually in house. Cell lines were not tested for Mycoplasma contamination. The media was prepared by the University of Illinois School of Chemical Sciences Cell Media Facility.
H. sapiens HFF-1, A549, and HepG2 cells were seeded (3,000-6,000 cells/well) in a 96-well plate (Greiner Bio-One;

[4] = system: panel of 10 clinical isolates (two E. coli, four K. pneumoniae, four A. baumannii); assay: MIC, Gram-negative clinical isolate challenge panel; type: cell-based; conditions: Gram-negative clinical isolates; fabimycin relative to (R)-7
[5] = system: S. aureus USA300 LAC; assay: Neutropenic thigh infection model; type: in vivo, mouse; conditions: neutropenic CD-1 mice, MRSA clinical isolate; 5 mg/kg retro-orbital IV 2 and 7 h postinfection; burden at 24 h
Method: Neutropenic thigh infection model
Acclimated CD-1 mice (see above) were rendered neutropenic prior to the experiment via cyclophosphamide treatment. […]
For the gram-positive infection model S. aureus USA300LAC was established intramuscular injection at 2.3 * 10^6 CFU/mouse. Mice were treated with FabI inhibitors at 2 and 7 hours post-infection with burden being assessed at 24 hours post-infection. […]
The protocol to assess fabimycin’s efficacy in A. baumannii-infected mice (strain: AR-0088) was approved by the IACUC at Pharmacology Discovery Services, Taiwan, Ltd. (protocol number: IM003-01282019). In this study, neutropenic female BALB/c mice 7-8 weeks in age from BioLASCO Taiwan (AAALAC-certified Charles River Licensee) weighing 18 ± 2 grams were used. The mice were rendered neutropenic and inoculated in the same method as used for the pharmacokinetic study. […]
Animals were euthanized using compressed CO2 gas in a CO2 gas chamber. […] Bacterial burden in the tissue homogenates was determined by performing 10-fold serial dilutions and plating 0.1 mL of each to nutrient agar plates. Colonies were counted after 18 - 24 h incubation. The colony-forming unit value per tissue (CFU/thigh) was calculated. […]
IM011-12282020). […] Tissues were collected and pathogen burden evaluated by dilution plating technique on nutrient agar plates.

Cc1c(CN(C)C(=O)/C=C/c2cnc3c(c2)CC[C@H](N)C(=O)N3)oc2ccccc12 [fabimycin]
MIC ([1]; ATCC 1593 / VRE): 128 µg/mL (≈ 316 µM)
MIC ([1]; ATCC 1768 / VRE): > 128 µg/mL
MIC ([1]; ATCC 2059 / VRE, VRE ATCC 2059, read-out: MIC): 64 µg/mL (≈ 158 µM)
MIC ([1]; ATCC 2431 / VRE): > 128 µg/mL
MIC ([1]; ATCC 2574 / VRE): > 128 µg/mL
MIC ([1]; ATCC 3053 / VRE, VRE ATCC 3053, read-out: MIC): 64 µg/mL (≈ 158 µM)
MIC ([1]; ATCC 3183 / VRE, VRE ATCC 3183, read-out: MIC): 64 µg/mL (≈ 158 µM)
MIC ([1]; ATCC 3190 / VRE): > 128 µg/mL
MIC ([1]; ATCC 3191 / VRE): 128 µg/mL (≈ 316 µM)
MIC ([1]; ATCC 29212 / VRE): 128 µg/mL (≈ 316 µM)
stability in plasma ([2]; human): excellent stability
stability in plasma ([2]; mouse): considerable instability
stability in plasma ([2]; rat): excellent stability
rate of killing, time-kill growth curve [3]: not profoundly bactericidal
difference in MIC activity between the two enantiomers [4]: 64–128 fold
reduction of bacterial burden [5]: significantly greater reduction of bacterial burden relative to Debio-1452
